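Cultured in 96-well plates, cells were exposed to test compound for 48 hours across five concentrations. GI50 = concentration required for 50% inhibition of growth.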 Activity calls are given as the source filed them. Rule as the data show it: active = GI50 up to about 1.1 µM and inactive = higher.
What was measured:
Experiment in all cases: NCI-60 cell line screen, 48 h
COLO 205 = system: COLO 205
TK-10 = system: TK-10
SF-539 = system: SF-539
NCI/ADR-RES = system: NCI/ADR-RES
SK-OV-3 = system: SK-OV-3
M14 = system: M14
RPMI-8226 = system: RPMI-8226
DU-145 = system: DU-145
K562 = system: K562
SW-620 = system: SW-620
MDA-MB-435 = system: MDA-MB-435
CAKI-1 = system: CAKI-1
CCRF-CEM = system: CCRF-CEM
HCT-116 = system: HCT-116
UACC-62 = system: UACC-62
OVCAR-8 = system: OVCAR-8
MOLT-4 = system: MOLT-4
U-251 = system: U-251
PC-3 = system: PC-3
HL-60 = system: HL-60
NCI-H522 = system: NCI-H522
NCI-H460 = system: NCI-H460
NCI-H226 = system: NCI-H226
NCI-H23 = system: NCI-H23
MDA-MB-231 = system: MDA-MB-231
KM12 = system: KM12
MDA-N = system: MDA-N
Malme-3M = system: Malme-3M
SF-268 = system: SF-268
T47D = system: T47D
HOP-92 = system: HOP-92
OVCAR-3 = system: OVCAR-3
SF-295 = system: SF-295
EKVX = system: EKVX
HCT-15 = system: HCT-15
SN12C = system: SN12C
BT-549 = system: BT-549
SR = system: SR
UO-31 = system: UO-31
786-0 = system: 786-0
HT-29 = system: HT-29
A549 = system: A549
HOP-62 = system: HOP-62
OVCAR-5 = system: OVCAR-5
A498 = system: A498
RXF 393 = system: RXF 393
ACHN = system: ACHN
MCF7 = system: MCF7
SNB-19 = system: SNB-19
Hs-578T = system: Hs-578T
HCC 2998 = system: HCC 2998
OVCAR-4 = system: OVCAR-4
SK-MEL-2 = system: SK-MEL-2
SK-MEL-5 = system: SK-MEL-5
UACC-257 = system: UACC-257
SK-MEL-28 = system: SK-MEL-28
LOX IMVI = system: LOX IMVI
IGROV-1 = system: IGROV-1

Measured: GI50

C=C1C(=O)O[C@@H]2/C=C(\C)CC/C=C(\C)CC[C@@]12O
active: RPMI-8226 0.948 µM | SW-620 1.04 µM | CCRF-CEM 0.149 µM | HL-60 0.771 µM | NCI-H522 0.371 µM | RXF 393 0.185 µM
2.82 µM: HCT-15
inactive: COLO 205 1.84 µM | TK-10 1.73 µM | SF-539 1.2 µM | NCI/ADR-RES 10.6 µM | SK-OV-3 15.6 µM | M14 3.7 µM | DU-145 1.97 µM | K562 2.42 µM | MDA-MB-435 2.62 µM | CAKI-1 1.35 µM | HCT-116 2.42 µM | UACC-62 9.35 µM | OVCAR-8 1.91 µM | MOLT-4 1.41 µM | U-251 7.36 µM | PC-3 4.28 µM | NCI-H460 9.55 µM | NCI-H226 13.8 µM | NCI-H23 1.67 µM | MDA-MB-231 8.65 µM | KM12 8.95 µM | MDA-N 2.25 µM | Malme-3M 1.53 µM | SF-268 5.37 µM | T47D 1.41 µM | HOP-92 1.78 µM | OVCAR-3 2.4 µM | SF-295 10.9 µM | EKVX 4.13 µM | SN12C 2.44 µM | BT-549 1.99 µM | SR 2.42 µM | UO-31 1.48 µM | 786-0 1.37 µM | HT-29 2.99 µM | A549 11.6 µM | HOP-62 5.07 µM | OVCAR-5 11.4 µM | A498 9.12 µM | ACHN 1.59 µM | MCF7 2.17 µM | SNB-19 5.43 µM | Hs-578T 8.79 µM | HCC 2998 5.31 µM | OVCAR-4 1.98 µM | SK-MEL-2 9.38 µM | SK-MEL-5 4.59 µM | UACC-257 4.86 µM | SK-MEL-28 3.99 µM | LOX IMVI 1.9 µM | IGROV-1 3.52 µM

CN(C)c1cccc(-c2cc(=S)c3cc4c(cc3[nH]2)OCO4)c1
inactive: COLO 205 14.8 µM | TK-10 > 77.4 µM | SF-539 4.27 µM | NCI/ADR-RES 3.94 µM | SK-OV-3 6.14 µM | M14 5.28 µM | RPMI-8226 > 21.1 µM | DU-145 4.74 µM | SW-620 5.15 µM | MDA-MB-435 1.76 µM | CAKI-1 11.1 µM | CCRF-CEM 4.26 µM | HCT-116 5.74 µM | UACC-62 6.27 µM | OVCAR-8 6.43 µM | MOLT-4 15.8 µM | U-251 > 20.7 µM | PC-3 3.61 µM | NCI-H522 12.6 µM | NCI-H460 4.59 µM | NCI-H226 5.7 µM | NCI-H23 5.62 µM | MDA-MB-231 31.9 µM | KM12 5.13 µM | MDA-N 2.83 µM | Malme-3M 8.28 µM | SF-268 > 61.2 µM | T47D 6.87 µM | HOP-92 > 100 µM | OVCAR-3 8.67 µM | SF-295 4.6 µM | EKVX 7.62 µM | SN12C 16.4 µM | BT-549 > 100 µM | SR 4.95 µM | UO-31 18.4 µM | 786-0 6.07 µM | HT-29 6.24 µM | A549 4.85 µM | HOP-62 > 27.5 µM | OVCAR-5 > 64.9 µM | A498 > 100 µM | RXF 393 4.83 µM | ACHN 7.93 µM | MCF7 4.94 µM | SNB-19 4.7 µM | Hs-578T 4.28 µM | HCC 2998 7.89 µM | OVCAR-4 > 100 µM | SK-MEL-2 24.4 µM | SK-MEL-5 3.4 µM | UACC-257 9.25 µM | SK-MEL-28 > 100 µM | LOX IMVI 7.73 µM | IGROV-1 6.38 µM
4.74 µM: HCT-15
